According to patent US11820832B2, “Bispecific HER2 and CD3 binding molecules” (MEMORIAL SLOAN KETTERING CANCER CENTER, priority 2014, dated 2023):

Legend:
[1] = test system: U2OS osteosarcoma cells; assay: Cell proliferation assay (WST-8); assay type: cell-based, human; details: 10 nM kinase inhibitors, 10 μg/mL antibodies
Protocol: (§1) Cell proliferation was determined using an ELISA plate reader and the WST-8 kit (Dojindo technologies) following the manufacturer's instructions and using the formula: % survival rate=(Sample-Background)/(Negative control-Background). Lapatinib (MSKCC pharmacy) was ground using a mortar and pestle and suspended in DMSO as previously described. To determine statistical significance, the results were analyzed using one-way ANOVA using Prism 6.0.
(§2) For cell proliferation assays, 5,000 tumor cells were plated using RPMI-1640 supplemented with 10% FBS in a 96 well plate for 36 hours before being treated with lapatinib or the antibodies at the specified concentrations. Cell proliferation was determined using an ELISA plate reader and the WST-8 kit (Dojindo technologies) following the manufacturer's instructions and using the formula: % survival rate=(Sample-Background)/(Negative control-Background). Lapatinib (Memorial Sloan Kettering Cancer Center pharmacy) was ground using a mortar and pestle and suspended in DMSO as previously described (Chen et al., 2012, Molecular cancer therapeutics 11:660-669). To determine statistical significance, the results were analyzed using one-way ANOVA using Prism 6.0.
(§3) For tumor cell proliferation, 5,000 tumor cells were plated using RPMI-1640 supplemented with 10% fetal bovine serum (“FBS”) in a 96 well plate for 36 hours before being treated with—kinase inhibitors or the antibodies at the specified concentration. Cell proliferation was determined using the cell counting WST-8 kit (Dojindo technologies) following the manufacturer's instructions and using the formula: % survival rate=(Sample-Background)/(Negative control-Background). Lapatinib was ground using a mortar and pestle and suspended in DMSO as previously described (Chen et al., Molecular cancer therapeutics 2012; 11:660-9). To determine statistical significance, the results were analyzed using one-way ANOVA using Prism 6.0.

[2] = test system: SCCHN cell line PCI-30; assay: Cell proliferation assay (WST-8); assay type: cell-based, human; details: 10 nM kinase inhibitors, 10 μg/mL antibodies
Protocol: as §1, §2, §3

[3] = test system: HeLa cervical carcinoma cells; assay: Cell proliferation assay (WST-8); assay type: cell-based, human; details: 10 nM kinase inhibitors, 10 μg/mL antibodies
Protocol: as §1, §2, §3

[4] = test system: trastuzumab-sensitive breast carcinoma cell line SKBR3; assay: Cell proliferation assay (WST-8); assay type: cell-based, human; details: lapatinib 10 nM, 72 hours
Protocol: as §1, §2, §3

[5] = test system: HeLa cervical cancer cells; assay: HER2-BsAb redirected T cell cytotoxicity, 51Cr release assay; assay type: cell-based, human; details: pretreatment with lapatinib
Protocol: (§4) The ^51Cr release assay was performed with effector T cells cultured in vitro in the presence of anti-CD3 and anti-CD28 for about 14 days. […] 5000 target cells/well were mixed with 50,000 effector cells (E:T=10:1) and BsAb antibodies in 96-well polystyrene round-bottom plates (BD Biosciences) to a final volume of 250 μl/well. The plates were incubated at 37° C. for 4 h. […] Percentage of specific release was calculated using the formula: (experimental cpm−background cpm)/(total cpm−background cpm)×100%, where cpm represented counts per minute of ^51Cr released. […] EC50 was calculated using SigmaPlot software.
(§5) Cell cytotoxicity was assayed by ^51Cr release as previously described (Xu et al., Cancer immunology research 2015; 3:266-77), and EC50 was calculated using SigmaPlot software. Effector PBMC cells were purified from buffy coats purchased from the New York Blood Center. ATCs were first purified from human PBMC using Pan T cell isolation kit, and then activated and expanded for approximately 14 days with CD3/CD28 Dynabeads (Invitrogen) according to manufacturer's protocol.

[6] = test system: HCC1954 breast cancer xenografts; assay: Xenograft, subcutaneous tumor plus intravenous effector cells; assay type: in vivo, DKO mice; details: s.c. HCC1954; for tumor volume changes, PD1/PDL1 blockade resistant model: i.v. PBMC 7.5×10^6 once per week for 2 weeks, 100 μg each twice per week for 4 weeks
Text: For in vivo therapy studies, BALB-Rag2-/−IL-2R-γc-KO (“DKO”) mice (derived from colony of Dr. Mamoru Ito, CIEA, Kawasaki, Japan; see, e.g., Koo et al., 2009, Expert Rev Vaccines 8:113-20 and Andrade et al., 2011, Arthritis Rheum 63:2764-73) were used. […] Subcutaneous xenografts were created with 5×10^6 cells suspended in Matrigel (Corning Corp, Tewksbury Mass.) and implanted in the flank of DKO mice. Effector peripheral blood mononuclear cell (PBMC) cells were purified from buffy coats purchased from the New York Blood Center. Prior to every experimental procedure, PBMCs were analyzed for their percentage of CD3, CD4, CD8 and CD56 cells to ensure consistency. […] Tumor size was measured using (1) hand-held TM900 scanner (Pieira, Brussels, BE); (2) Calipers; or (3) bioluminescence. Bioluminescence imaging was conducted using the Xenogen In Vivo Imaging System (IVIS) 200 (Caliper LifeSciences). Briefly, mice were injected intravenously with 0.1 mL solution of D-luciferin (Gold Biotechnology; 30 mg/mL stock in PBS). Images were collected 1 to 2 minutes after injection using the following parameters: a 10- to 60-second exposure time, medium binning, and an 8 f/stop. Bioluminescence image analysis was performed using Living Image 2.6 (Caliper LifeSciences).
For in vivo therapy studies, BALB-Rag2-/−IL-2R-γc-KO (DKO) mice (derived from colony of Dr. Mamoru Ito, CIEA, Kawasaki, Japan)(Koo et al., Expert Rev Vaccines 2009; 8:113-20; Andrade et al., Arthritis Rheum 2011; 63:2764-73) were used. […] Effector PBMC cells and ATCs were prepared as described above. Prior to every experimental procedure, PBMCs and ATCs were analyzed by FACS for their percentage of CD3, CD4, CD8 and CD56 cells to ensure consistency. […] Tumor size was measured using 1) hand-held TM900 scanner (Pieira, Brussels, BE), 2) Calipers, or 3) Bioluminescence. […]

[7] = biological target: CD3 (Homo sapiens, UniProt P07766); assay: Binding affinity analysis by Biacore (Surface Plasmon Resonance); details: antigen CD3, Biacore
Sequence of CD3 (P07766 23-126 limits assumed): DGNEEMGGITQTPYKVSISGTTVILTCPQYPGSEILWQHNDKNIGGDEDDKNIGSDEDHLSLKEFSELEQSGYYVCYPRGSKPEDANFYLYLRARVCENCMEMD
Protocol: Binding assays were performed by Surface Plasmon Resonance using Biacore T100 similar as described in Okazaki et al., 2004, J Mol Biol; 336(5): 1239-1249.

[8] = test system: naïve T cells; assay: T cell proliferation assay (WST-8); assay type: cell-based, human; details: 67 nM antibody, absence of tumor targets, 6 days
Protocol: For T cell proliferation, naïve T cells were purified from human PBMC using Pan T cell isolation kit (Miltenyi Biotec). 2×10^5 purified T cells were mixed with different antibodies in 96-well cell culture plate to a final volume of 250 μl/well. T cells were cultured and maintained in RPMI-1640 supplemented with 10% FBS in 37° C. for 6 days. T cell proliferation was quantitated using the WST-8 kit as described above.

[9] = test system: naïve T cells with or without NCI-N87 tumor cells; assay: Cytokine release assay with naive T cells; assay type: cell-based, human; details: 16.7 nM antibody, 24 hours
Protocol: Cytokine release was assayed as previously described (Ahmed et al., Oncolmmunology 2015; 4:e989776), using naïve T cells prepared as described above. T cells (200,000/well) were cultured with or without NCI-N87 tumor cells (10,000/well) for 24 hours before supernatants being harvested for ELISA-based cytokine assay.

[10] = test system: HER2-positive cells; assay: Blocking of HER2-BsAb induced T cell cytotoxicity; assay type: cell-based, human; details: HER2-positive cells pre-incubated with blocking antibody
Protocol: as §4

[11] = test system: HER2(+) SCCHN cell line PCI-13; assay: Blocking of HER2-BsAb T-cell cytotoxicity by trastuzumab or huOKT3; assay type: cell-based, human; details: 0.1 μg/mL HER2-BsAb with 10 μg/mL blocking antibody
Protocol: as §5

C#Cc1cccc(Nc2ncnc3cc(OCCOC)c(OCCOC)cc23)c1 [erlotinib]
sensitivity of cells in proliferation assay [1]: minimal sensitivity
sensitivity of cells in proliferation assay [2]: resistant
sensitivity of cells in proliferation assay [3]: pan-resistant

CS(=O)(=O)CCNCc1ccc(-c2ccc3ncnc(Nc4ccc(OCc5cccc(F)c5)c(Cl)c4)c3c2)o1 [lapatinib]
inhibition of cell proliferation (positive control) [4]: strongest inhibition of cell proliferation
sensitivity of cells in proliferation assay [1]: minimal sensitivity
sensitivity of cells in proliferation assay [2]: resistant
sensitivity of cells in proliferation assay [3]: pan-resistant
effect of pretreatment on HER2-BsAb mediated cytotoxicity [5]: increased sensitivity

Pembrolizumab
tumor volume changes, PD1/PDL1 blockade resistant model [6]: no effect

huOKT3 IgG1-aGlyco: parental aglycosylated huOKT3 IgG1
Kd [7]: 64.6 nM
koff [7]: 0.109 s⁻¹
kon [7]: 1.68e+06 M⁻¹ s⁻¹

Atezolizumab
tumor volume changes, PD1/PDL1 blockade resistant model [6]: no effect

CCOc1cc2ncc(C#N)c(Nc3ccc(OCc4ccccn4)c(Cl)c3)c2cc1NC(=O)/C=C/CN(C)C [neratinib]
sensitivity of cells in proliferation assay [1]: minimal sensitivity
sensitivity of cells in proliferation assay [2]: resistant
sensitivity of cells in proliferation assay [3]: pan-resistant

huOKT3 Fab: monovalent Fab prepared from huOKT3 IgG1
T cell proliferation [8]: negligible effects
cytokine release in the absence of tumor targets [9]: background cytokine release

huOKT3: humanized OKT3 anti-CD3 IgG1, same variable sequences as in huOKT3 scFv
tumor growth ([6]; i.v. PBMC once a week for 3 weeks, i.v. antibody twice a week for 3 weeks): only modest effects
T cell proliferation [8]: robust T cell proliferation
blocking of the ability of HER2-BsAb to induce T cell cytotoxicity [10]: blocked
blocking of HER2-BsAb mediated T-cell cytotoxicity [11]: prevented
cytokine release in the absence of tumor targets [9]: substantially more cytokines
